Assay results published in patent publication US20210078988A1, “MODULATORS OF INDOLEAMINE 2,3-DIOXYGENASE” (GLAXOSMITHKLINE INTELLECTUAL PROPERTY DEVELOPMENT LIMITED, priority 2017, published 2021).

Target: T1, indoleamine 2, 3-dioxygenase (IDO1) (Homo sapiens, UniProt P14902)
T1 construct: human peripheral blood mononuclear cells (PBMC) (PB003F; host or cells: human PBMC stimulated with IFN-gamma and LPS
Test: PBMC IDO1 assay (kynurenine detection via mass spectrometry)
Type: cell-based
Details: human PBMC stimulated with IFN-γ and LPS, 2 days, kynurenine by mass spectrometry; read-out: IDO1 PBMC pIC50 (converted)
Method in brief: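 Human PBMCs (50,000/well) stimulated with IFN-γ 100 ng/ml and LPS 50 ng/ml were exposed to 11-point 3-fold compound dilutions for 2 days at 37 °C. Supernatant kynurenine was quantified by RapidFire MS relative to an internal standard; parallel CellTiter-Glo ATP luminescence measured cytotoxicity, with four-parameter curve fitting.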

T1 sequence (P14902 whole entry): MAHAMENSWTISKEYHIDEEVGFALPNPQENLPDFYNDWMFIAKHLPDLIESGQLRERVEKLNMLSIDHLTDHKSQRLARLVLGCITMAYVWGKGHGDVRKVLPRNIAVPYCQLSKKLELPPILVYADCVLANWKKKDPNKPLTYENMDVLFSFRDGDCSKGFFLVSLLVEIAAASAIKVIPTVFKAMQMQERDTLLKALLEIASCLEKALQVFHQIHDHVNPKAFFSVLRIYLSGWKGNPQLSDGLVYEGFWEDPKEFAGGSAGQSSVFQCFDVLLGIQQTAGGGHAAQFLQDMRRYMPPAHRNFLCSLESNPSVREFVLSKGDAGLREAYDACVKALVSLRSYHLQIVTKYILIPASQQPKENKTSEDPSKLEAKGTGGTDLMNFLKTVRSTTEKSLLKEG

Cc1ccc(C(=O)NC(CC2CCN(C(=O)C(F)(F)c3ccccn3)CC2)c2ccccc2)s1 (centres unmarked) [Example 136, N-(2-(1-(2,2-difluoro-2-(pyridin-2-yl)acetyl)piperidin-4-yl)-1-phenylethyl)-5-methylthiophene-2-carboxamide]
IC50: 50.1 nM

Cc1ccc(C(=O)NC(CC2CCN(c3ccccc3)CC2)c2ccccc2)s1 (centres unmarked) [Example 137, 5-methyl-N-(1-phenyl-2-(1-phenylpiperidin-4-yl)ethyl)thiophene-2-carboxamide]
IC50: 50.1 nM

CC(C)(C)OC(=O)N1CCC(CC(NC(=O)c2ccccc2)c2ccccc2)CC1 (centres unmarked) [Example 138, tert-butyl 4-(2-benzamido-2-phenylethyl)piperidine-1-carboxylate]
IC50: 63.1 nM

Cc1ccc(C(=O)NC(CC2CCN(C(=O)OC(C)(C)C)CC2)c2ccccc2)cc1F (centres unmarked) [Example 139, tert-butyl 4-(2-(3-fluoro-4-methylbenzamido)-2-phenylethyl)piperidine-1-carboxylate]
IC50: 63.1 nM

CN(Cc1ccccc1)c1nnc(C(CC2CCN(C(=O)OC(C)(C)C)CC2)NC(=O)c2ccc(Cl)s2)o1 (centres unmarked) [Example 140, tert-butyl 4-(2-(5-(benzyl(methyl)amino)-1,3,4-oxadiazol-2-yl)-2-(5-chlorothiophene-2-carboxamido)ethyl)piperidine-1-carboxylate]
IC50: 63.1 nM

CC(C)(C)OC(=O)N1CCC(CC(NC(=O)c2ccc(C#N)cc2)c2ccccc2)CC1 (centres unmarked) [Example 141, tert-butyl 4-(2-(4-cyanobenzamido)-2-phenylethyl)piperidine-1-carboxylate]
IC50: 63.1 nM

CC(C)(C)OC(=O)N1CCC(CC(CNCc2ccccc2)NC(=O)c2ccc(F)cc2)CC1 (centres unmarked) [Example 142, tert-butyl 4-(3-(benzylamino)-2-(4-fluorobenzamido)propyl)piperidine-1-carboxylate]
IC50: 63.1 nM

COc1ccc(C(=O)NC(CC2CCN(C(=O)OC(C)(C)C)CC2)c2ccccc2)cc1 (centres unmarked) [Example 143, tert-butyl 4-(2-(4-methoxybenzamido)-2-phenylethyl)piperidine-1-carboxylate]
IC50: 79.4 nM

CC(C)Oc1ccc(C(CC2CCN(C(=O)OC(C)(C)C)CC2)NC(=O)c2ccc(F)cc2)cn1 (centres unmarked) [Example 144, tert-butyl 4-(2-(4-fluorobenzamido)-2-(6-isopropoxypyridin-3-yl)ethyl)piperidine-1-carboxylate]
IC50: 79.4 nM

COC(=O)N1CCC(CC(NC(=O)c2ccc(F)cc2)c2ccc(OC)nc2)CC1 (centres unmarked) [Example 145, methyl 4-(2-(4-fluorobenzamido)-2-(6-methoxypyridin-3-yl)ethyl)piperidine-1-carboxylate]
IC50: 79.4 nM

CC(C)(C)OC(=O)N1CCC(CC(NC(=O)c2cccc(F)c2)c2ccccc2)CC1 (centres unmarked) [Example 146, tert-butyl 4-(2-(3-fluorobenzamido)-2-phenylethyl)piperidine-1-carboxylate]
IC50: 79.4 nM

CC(C)(C)OC(=O)N1CCC(CC(NC(=O)c2ccc(F)c(F)c2)c2ccccc2)CC1 (centres unmarked) [Example 147, tert-butyl 4-(2-(3,4-difluorobenzamido)-2-phenylethyl)piperidine-1-carboxylate]
IC50: 79.4 nM

CC(C)(C)OC(=O)N1CCC(C[C@H](Nc2nc3ccc(Cl)cc3o2)C2CC2)CC1 [Example 148, (S)-tert-butyl 4-(2-((6-chlorobenzo[d]oxazol-2-yl)amino)-2-cyclopropylethyl)piperidine-1-carboxylate]
IC50: 79.4 nM

CC#CCOc1ccc(C(=O)NC(CC2CCN(C(=O)OC(C)(C)C)CC2)c2ccccc2)cc1 (centres unmarked) [Example 149, tert-butyl 4-(2-(4-(but-2-yn-1-yloxy)benzamido)-2-phenylethyl)piperidine-1-carboxylate]
IC50: 79.4 nM

O=C(NC(CC1CCN(C(=O)OC2CCCCC2)CC1)c1ccccc1)c1ccc(Cl)cc1 (centres unmarked) [Example 150, cyclohexyl 4-(2-(4-chlorobenzamido)-2-phenylethyl)piperidine-1-carboxylate]
IC50: 79.4 nM

CC(C)(C)OC(=O)N1CCC(CC(NC(=O)c2ccc(Cl)cc2)C2CCCC2)CC1 (centres unmarked) [Example 151, tert-butyl 4-(2-(4-chlorobenzamido)-2-cyclopentylethyl)piperidine-1-carboxylate]
IC50: 79.4 nM

CC(C)(C)OC(=O)N1CCC(CC(NC(=O)c2ccc(F)cc2)C2CCCCC2)CC1 (centres unmarked) [Example 152, tert-butyl 4-(2-cyclohexyl-2-(4-fluorobenzamido)ethyl)piperidine-1-carboxylate]
IC50: 79.4 nM

Cc1cc(C(=O)NC(CC2CCN(C(=O)OC(C)(C)C)CC2)c2ccccc2)cs1 (centres unmarked) [Example 153, tert-butyl 4-(2-(5-methylthiophene-3-carboxamido)-2-phenylethyl)piperidine-1-carboxylate]
IC50: 79.4 nM

CCCC(=O)N1CCC(CC(NC(=O)c2ccc(Cl)cc2)c2ccccc2)CC1 (centres unmarked) [Example 154, N-(2-(1-butyrylpiperidin-4-yl)-1-phenylethyl)-4-chlorobenzamide]
IC50: 79.4 nM

C=CC[C@@H](CC1CCN(C(=O)OC(C)(C)C)CC1)NC(=O)c1ccc(Cl)s1 [Example 155, (S)-tert-butyl 4-(2-(5-chlorothiophene-2-carboxamido)pent-4-en-1-yl)piperidine-1-carboxylate]
IC50: 79.4 nM

Cc1ccc(C(=O)NC(CC2CCN(C(=O)c3ccccc3)CC2)c2ccccc2)s1 (centres unmarked) [Example 156, N-(2-(1-benzoylpiperidin-4-yl)-1-phenylethyl)-5-methylthiophene-2-carboxamide]
IC50: 79.4 nM

COc1ccc(C(=O)NC(CC2CCN(C(=O)OC(C)(C)C)CC2)c2ccccc2)cn1 (centres unmarked) [Example 157, tert-butyl 4-(2-(6-methoxynicotinamido)-2-phenylethyl)piperidine-1-carboxylate]
IC50: 100 nM

CCOC(=O)N1CCC(CC(NC(=O)c2ccc(OC)nc2)C2CC2)CC1 (centres unmarked) [Example 158, ethyl 4-(2-cyclopropyl-2-(6-methoxynicotinamido)ethyl)piperidine-1-carboxylate]
IC50: 100 nM

CC(C)(C)OC(=O)N1CCC(CC(NC(=O)c2ccsc2)c2ccccc2)CC1 (centres unmarked) [Example 159, tert-butyl 4-(2-phenyl-2-(thiophene-3-carboxamido)ethyl)piperidine-1-carboxylate]
IC50: 100 nM

CC(C)(C)OC(=O)N1CCC(CC(NC(=O)c2ccc(F)cc2)c2ccc(OCc3ccccc3)nc2)CC1 (centres unmarked) [Example 160, tert-butyl 4-(2-(6-(benzyloxy)pyridin-3-yl)-2-(4-fluorobenzamido)ethyl)piperidine-1-carboxylate]
IC50: 100 nM

COc1cc(C(=O)NC(CC2CCN(C(=O)OC(C)(C)C)CC2)c2ccccc2)ccc1Cl (centres unmarked) [Example 161, tert-butyl 4-(2-(4-chloro-3-methoxybenzamido)-2-phenylethyl)piperidine-1-carboxylate]
IC50: 100 nM

CC(C)(C)OC(=O)N1CCC(CC(NC(=O)c2ccc(C#N)c(F)c2)c2ccccc2)CC1 (centres unmarked) [Example 162, tert-butyl 4-(2-(4-cyano-3-fluorobenzamido)-2-phenylethyl)piperidine-1-carboxylate]
IC50: 100 nM

CC(C)CC(=O)N1CCC(CC(NC(=O)c2ccc(Cl)cc2)c2ccccc2)CC1 (centres unmarked) [Example 163, 4-chloro-N-(2-(1-(3-methylbutanoyl)piperidin-4-yl)-1-phenylethyl)benzamide]
IC50: 100 nM

CC(C)(C)CC(=O)N1CCC(CC(NC(=O)c2ccc(Cl)cc2)c2ccccc2)CC1 (centres unmarked) [Example 164, 4-chloro-N-(2-(1-(3,3-dimethylbutanoyl)piperidin-4-yl)-1-phenylethyl)benzamide]
IC50: 100 nM

CC(C)(C)NC(=O)N1CCC(CC(NC(=O)c2ccc(Cl)cc2)c2ccccc2)CC1 (centres unmarked) [Example 165, N-(tert-butyl)-4-(2-(4-chlorobenzamido)-2-phenylethyl)piperidine-1-carboxamide]
IC50: 100 nM

CC(C)CS(=O)(=O)N1CCC(CC(NC(=O)c2ccc(Cl)cc2)c2ccccc2)CC1 (centres unmarked) [Example 166, 4-chloro-N-(2-(1-(isobutylsulfonyl)piperidin-4-yl)-1-phenylethyl)benzamide]
IC50: 100 nM

CC#CCOc1ccc(C(=O)NC(CC2CCN(C(=O)OC(C)(C)C)CC2)c2ccccc2)cc1F (centres unmarked) [Example 167, tert-butyl 4-(2-(4-(but-2-yn-1-yloxy)-3-fluorobenzamido)-2-phenylethyl)piperidine-1-carboxylate]
IC50: 100 nM

CC(C)(C)OC(=O)N1CCC(CC(NC(=O)c2cc(Cl)cs2)c2ccccc2)CC1 (centres unmarked) [Example 168, tert-butyl 4-(2-(4-chlorothiophene-2-carboxamido)-2-phenylethyl)piperidine-1-carboxylate]
IC50: 100 nM

CCC(CC)c1nc(C(CC2CCN(C(=O)OC(C)(C)C)CC2)NC(=O)c2ccc(F)cc2)no1 (centres unmarked) [Example 169, tert-butyl 4-(2-(4-fluorobenzamido)-2-(5-(pentan-3-yl)-1,2,4-oxadiazol-3-yl)ethyl)piperidine-1-carboxylate]
IC50: 100 nM

CC(C)(C)OC(=O)N1CCC(C[C@H](Nc2ncc(-c3ccccc3)o2)C2CC2)CC1 [Example 170, (S)-tert-butyl 4-(2-cyclopropyl-2-((5-phenyloxazol-2-yl)amino)ethyl)piperidine-1-carboxylate]
IC50: 100 nM

CCCNc1nnc(C(CC2CCN(C(=O)OC(C)(C)C)CC2)NC(=O)c2ccc(Cl)s2)o1 (centres unmarked) [Example 171, tert-butyl 4-(2-(5-chlorothiophene-2-carboxamido)-2-(5-(propylamino)-1,3,4-oxadiazol-2-yl)ethyl)piperidine-1-carboxylate]
IC50: 100 nM

COC(=O)N1CCC(CC(NC(=O)c2ccc(F)cc2)c2ccccc2)CC1 (centres unmarked) [Example 173, methyl 4-(2-(4-fluorobenzamido)-2-phenylethyl)piperidine-1-carboxylate]
IC50: 126 nM

Cc1ccc(C(CC2CCN(C(=O)OC(C)(C)C)CC2)NC(=O)c2ccc(F)cc2)cn1 (centres unmarked) [Example 174, tert-butyl 4-(2-(4-fluorobenzamido)-2-(6-methylpyridin-3-yl)ethyl)piperidine-1-carboxylate]
IC50: 126 nM
